Four molecules from patent US11136547B2, “Mesoderm induction method having high blood cell differentiation capacity” (Kyoto University, priority 2016, dated 2021) can be followed below.

“Also recorded” adds a separate entry of the source.

Assay [1] deals with KhES3 and H1 cells. In words: Intermediate step intervention in C3H10T1/2 co-culture: occurrence of CD43+ blood cells on day 10. Type of assay: cell-based, human. The note with it: factor added in intermediate step days 4 to 7, in the presence of VEGF; compared with control/DMSO group; n=3. Here is the method: (§1) Human ES cells that had been maintenance cultured in MEF were detached from the bottom of the dish in colony form as at the time of passage, and seeded on an inactivated C3H10T1/2 dish that had been prepared the previous day. The seeding rate was roughly 5×10^4 to 2×10^5 cells per 10-cm dish, although this is an estimate because the cells could not be counted. The medium was blood cell differentiation medium to which VEGF had been added to a final concentration of 20 ng/mL. Single cells were collected using 0.05% trypsin EDTA as necessary, the cells were counted, Y27632 was added to […], and the cells were differentiated as single cells.
When analyzing cells during differentiation, the culture supernatant was removed, the cells were washed twice with PBS, and 2 mL/dish of 0.25% trypsin EDTA was added and incubated for 5 minutes at 37° C. […] Blood cell differentiation medium was added to stop the reaction, and after centrifugation and removal of the supernatant, the cells were suspended in the necessary medium and analyzed.
(§2) Cells in a single-cell state were prepared as necessary, and fluorescent labeled antibodies were also included as necessary in amounts matching the cell numbers. […] These were then diluted with SM and centrifuged, the supernatant was removed, and the cells were suspended in the necessary amount of SMPI and analyzed. […]

The test system of assay [2] is KhES3 and H1 cells. Kind of assay: Initial step intervention in C3H10T1/2 co-culture: occurrence of CD56+APJ+ mesodermal cells on day 4 (flow cytometry). It counts as cell-based, human. The note with it: factor added on days 0 to 4; co-culture with C3H10T1/2; compared with control group; n=3. How it is done:
as §1
When analyzing cells during differentiation, the culture supernatant was removed, the cells were washed twice with PBS, and 2 mL/dish of 0.25% trypsin EDTA was added and incubated for 5 minutes at 37° C. The cells were separated into single cells by pipetting with a Pipetman (p1000), and collected in a 15 mL centrifuge tube. Blood cell differentiation medium was added to stop the reaction, and after centrifugation and removal of the supernatant, the cells were suspended in the necessary medium and analyzed.
as §2
Taking cell surface markers as an evaluation standard, KhES3 and H1 cells were used to investigate what changes are seen in the occurrence of CD56+APJ+ cells due to interventions in the initial step. […] For the added concentrations of each factor, the maximum concentration was determined with reference to previous reports, and this was then diluted to investigate concentration (Inman, G. J. et al., Mol. Pharmacol. 62, 65-74 (2002); Xu, R.-H. et al., Nat Meth 2, 185-190 (2005); Huang, S.-M. A. et al., Nature 461, 614-620 (2009)).
Background: In flow cytometry, cells or beads pass a laser one at a time.

With `NC(=O)c1ccc(-c2nc(-c3ccc4c(c3)OCO4)c(-c3ccccn3)[nH]2)cc1` [SB431542], the “percentage occurrence of blood cells (CD43+) on day 10” value in the assay on KhES3 and H1 cells [1] was “increased; also recorded: significantly improved”. Besides, the “occurrence of CD56+APJ+ mesodermal cells on day 4” value (“occurrence … on day 4” for short) with KhES3 and H1 cells [2] is “sharp drop in the ratio of CD56+APJ+ cells at the low concentration point; also recorded: significant decrease in the mesodermal cell population”.

As to `Oc1nc(-c2ccc(C(F)(F)F)cc2)nc2c1CSCC2` [XAV939], the “occurrence … on day 4” value with KhES3 and H1 cells [2] is given as “reduction in CD56+APJ+ cells was confirmed; also recorded: tended to decrease”.

With bFGF: basic fibroblast growth factor, the “percentage occurrence of blood cells (CD43+) on day 10” value with KhES3 and H1 cells [1] is “tended to be better”.

B1: NOGGIN: physiological BMP antagonist (protein, UniProt Q13253 28-232, looked up)
Noggin: QHYLHIRPAPSDNLPLVDLIEHPDPIFDPKEKDLNETLLRSLLGGHYDPGFMATSPPEDRPGGGGGAAGGAEDLAELDQLLRQRPSGAMPSEIKGLEFSEGLAQGKKQRLSKKLRRKLQMWLWSQTFCPVLYAWNDLGSRFWPRYVKVGSCFSKRSCSVPEGMVCKPSKSVHLTVLRWRCQRRGGQRCGWIPIQYPIISECKCSC
As for B1, the “occurrence … on day 4” value with KhES3 and H1 cells [2] was “drop in CD56+APJ+ cells was confirmed, but the effect was limited; also recorded: decrease in the mesodermal cell population”.
